Active and inactive are the calls of the source.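 How the source made its calls: active means EC50 at or below 20 micromolar; inactive means the rest.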

The target of the test is Neurotensin receptor type 1 (Homo sapiens) (UniProt P30989). Briefly: NTSR1 activation via enzyme-fragment complementation – cell-based, luminescence, CHO-K1 NTSR1 PathHunter, orthogonal assay for NTR1 agonist project, SAR follow-up (AID 602427).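 Further: agonist potency for NTR1 activation where higher luminescence means more arrestin recruitment.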 The note with it: CHO-K1 NTSR1 PathHunter beta-arrestin.
Neurotensin receptor type 1 (Homo sapiens), sequence (P30989 whole entry, looked up, the tested form may be a part): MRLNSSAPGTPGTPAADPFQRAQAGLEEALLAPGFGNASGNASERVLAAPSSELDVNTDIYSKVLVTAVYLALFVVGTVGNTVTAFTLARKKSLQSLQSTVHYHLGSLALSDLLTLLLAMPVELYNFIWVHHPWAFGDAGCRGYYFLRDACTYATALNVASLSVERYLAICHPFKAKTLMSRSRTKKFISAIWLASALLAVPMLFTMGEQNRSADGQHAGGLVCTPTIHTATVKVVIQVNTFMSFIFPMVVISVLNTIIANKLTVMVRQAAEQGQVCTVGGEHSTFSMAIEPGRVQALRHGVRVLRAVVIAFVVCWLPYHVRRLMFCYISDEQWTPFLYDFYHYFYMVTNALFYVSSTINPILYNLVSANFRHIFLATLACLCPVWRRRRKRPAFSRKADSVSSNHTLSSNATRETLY
With `COc1ccccc1-c1cc(C(=O)O)nn1-c1ccnc2cc(Cl)ccc12`, the EC50 (as a rule, the midpoint of the concentration-response curve) is > 33 µM (inactive).
The result for `COc1cc2c3nnc(-c4ccc(C)cc4)c-3cn(Cc3ccccc3)c2cc1OC` reads “inactive”.
The result for `CC(C)C[C@H](NC(=O)c1cn(-c2ccnc3ccccc23)c(-c2ccccc2)n1)C(=O)O` reads > 33 µM (inactive); that for `COc1ccccc1-c1cc(C(=O)N[C@@H](CC(C)C)C(=O)O)nn1-c1ccnc2cc(Cl)ccc12`, 0.546 µM.
Then `COc1cc2c3nnc(-c4ccc(C)c(C)c4)c-3cn(Cc3ccc(C)cc3)c2cc1OC`, with “inactive”; and `CC(C)C[C@H](NC(=O)c1nc(-c2ccnc3ccccc23)c(-c2ccccc2)s1)C(=O)O`, with > 33 µM (inactive).
As for `COc1ccc(C(=O)c2cn(CCc3ccccc3)c3ccccc3c2=O)cc1`, the EC50 was > 33 µM (inactive).
Then `Cc1ccc(-c2nnc3c4cc5c(cc4n(Cc4ccccc4)cc2-3)OCO5)cc1`, with > 33 µM (inactive); and `Cc1ccc(-c2nnc3c4cc5c(cc4n(Cc4ccc(F)cc4)cc2-3)OCO5)cc1C`, with > 33 µM (inactive); and `COc1cc2c3nnc(-c4ccc(F)cc4)c-3cn(Cc3ccccc3)c2cc1OC`, with “inactive”.
The result for `COc1ccccc1-c1cc(C(=O)N[C@@H](CC(C)C)C(=O)OC(C)(C)C)nn1-c1ccnc2cc(Cl)ccc12` reads > 33 µM (inactive); that for `O=C(O)c1nc(-c2ccnc3ccccc23)c(-c2ccccc2)s1`, > 33 µM (inactive); that for `COc1ccc(C(=O)c2cn(Cc3ccc(C)cc3)c3ccccc3c2=O)cc1`, > 33 µM (inactive).
The result for `CCOc1cc2nc(-c3ccc(OC)c(OC)c3)nc(N3CCN(c4ccccc4F)CC3)c2cc1OC` reads > 33 µM (inactive).
Turning to `Clc1ccccc1-n1ncc2c(N3CCN(c4ccccc4)CC3)ncnc21`, the EC50 is > 33 µM (inactive).
Consider `COc1cc2c3nnc(-c4ccc(F)cc4)c-3cn(Cc3ccc(F)cc3)c2cc1OC`, for which the EC50 is > 33 µM (inactive).
The result for `COc1ccc(-n2ncc3c(N4CCN(c5ccccc5)CC4)ncnc32)cc1` reads > 33 µM (inactive).
Then `Cc1ccc(/C=N/Nc2nc(-c3ccc(S(=O)(=O)N(C)C)cc3)cs2)cc1`, with > 33 µM (inactive); and `COc1cccc2c(C(=O)N[C@@H](CC(C)C)C(=O)O)cn(-c3ccnc4ccccc34)c12`, with > 33 µM (inactive); and `COc1ccccc1-c1nc(C(=O)N[C@@H](CC(C)C)C(=O)O)cn1-c1ccnc2ccccc12`, with > 33 µM (inactive).
Then `CCN(CC)S(=O)(=O)c1ccc(-c2csc(N/N=C/c3ccco3)n2)cc1`, with > 33 µM (inactive); and `COc1cc2nc(C3CC3)nc(N3CCN(c4ccccc4OC)CC3)c2cc1OC`, with 3.8 µM; and `COc1cccc(N2CCN(c3ncnc4c3cnn4-c3ccc(C)cc3C)CC2)c1`, with > 33 µM (inactive).
Take `COc1ccc(-c2nnc3c4ccccc4n(CC4CC4)cc2-3)cc1`: the EC50 is > 33 µM (inactive).
The result for `COc1ccc2c(c1)c(=O)c(C(=O)c1ccc(F)cc1)cn2Cc1ccccc1` reads > 33 µM (inactive); that for `COc1cc2c3nnc(-c4ccccc4)c-3cn(Cc3ccccc3)c2cc1OC`, > 33 µM (inactive).
`CC(C)C[C@H](NC(=O)c1cn(-c2ccncc2)c(-c2ccccc2)n1)C(=O)O`: the EC50 was > 33 µM (inactive).
Then `COc1ccccc1N1CCN(c2nc(C3CCC3)nc3cc4c(cc23)OCO4)CC1`, with > 33 µM (inactive); and `Cc1ccc(-n2ncc3c(N4CCN(c5ccc(Cl)c(Cl)c5)CC4)ncnc32)c(C)c1`, with > 33 µM (inactive).
Regarding `COc1ccccc1N1CCN(c2ncnc3c2cnn3-c2ccc(C)cc2C)CC1`, the EC50 result is “inactive”.
On to `Cc1ccc(-n2ncc3c(N4CCN(c5ccccc5)CC4)ncnc32)cc1`, for which the EC50 is > 33 µM (inactive).
The result for `COc1cc2nc(C3CCC3)nc(N3CCN(c4ccccc4F)CC3)c2cc1OC` reads > 33 µM (inactive).

For the origin of these results see PubChem BioAssay AID602427 (Sanford-Burnham Center for Chemical Genomics, 2012).
